These results are taken from patent US20230083012A1, “DIHYDROPYRIMIDINE DERIVATIVES AND USES THEREOF IN THE TREATMENT OF HBV INFECTION OR OF HBV-INDUCED DISEASES” (priority 2019, published 2023).

SMILES strings stand for the structures. Read-outs that look alike come from different tables or passages of the source.

In one data set the test system is HBV. Put plainly: Anti-HBV activity in HepG2.2.15 cells (HBV DNA in culture medium by qPCR). It is filed as cell-based. The following applies: Hepatitis B virus, HepG2.2.15, 144 h. In outline: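 Secreted HBV DNA was measured by real-time PCR after 6-day compound exposure of HepG2.2.15 cells (2% FBS, 37 °C, re-dosed after 3 days), giving EC50 from 8-point 1:3 series starting at 10 or 1 uM. Cytotoxicity (CC50) run separately at lower cell density, top 100 uM.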

Data set [1] can be described thus: Cytotoxicity determination in HepG2.2.15 cells (CCK-8 cell viability). The following applies: human, 6 days treatment, CCK-8 assay, highest concentration 100 uM. It is filed as cell-based. In outline:
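Viability measured by CCK-8 absorbance (450 nm, 630 nm reference, 2.5 h at 37° C) after six days of treatment, medium and compound renewed on day 3. Top concentration 100 uM, eight threefold dilutions in triplicate; cells plated at 5,000/well in 2% FBS medium; CC50 derived.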
In general terms: Formazan colour is commonly taken as a measure of viable cells.

Setting [2] is: HepG2.2.15 cells, 6 days treatment, HBV DNA in culture medium quantified by real-time PCR, read-out: EC50.

Broadly, the EC50 is the midpoint of the concentration-response curve. The term CC50 denotes the concentration that lowers cell viability or growth by half. High values mean better tolerance by the cells, low ones harm at low concentration. Turning to `CCOC(=O)C1=C(CN2CC(F)(F)[C@@H]3CN(C(=O)C(C)(C)C(=O)O)C[C@@H]32)NC(c2nccs2)=N[C@H]1c1cccc(F)c1Cl` (single isomer, unassigned) [Compound 207, 3-((cis)-1-((6-(2-chloro-3-fluorophenyl)-5-(ethoxycarbonyl)-2-(thiazol-2-yl)-3,6-dihydropyrimidin-4-yl)methyl)-3,3-difluorohexahydropyrrolo[3,4-b]pyrrol-5(1H)-yl)-2,2-dimethyl-3-oxopropanoic acid], the EC50 in the data set on HBV (setting [2]) came out at 59 nM. In data set [1], this compound had a CC50 at 6 days of more than 50000 nM.

Take `COC(=O)C1=C(CN2CC(F)(F)[C@@H]3CN(C(=O)C(C)(C)C(=O)O)C[C@@H]32)NC(c2nccs2)=N[C@H]1c1ccc(F)cc1Cl` (single isomer, unassigned) [Compound 208, 3-((cis)-1-((6-(2-chloro-4-fluorophenyl)-5-(methoxycarbonyl)-2-(thiazol-2-yl)-3,6-dihydropyrimidin-4-yl)methyl)-3,3-difluorohexahydropyrrolo[3,4-b]pyrrol-5(1H)-yl)-2,2-dimethyl-3-oxopropanoic acid]: in the data set with HBV (setting [2]), the EC50 was 28.6 nM. This compound also showed a CC50 at 6 days in data set [1] of more than 100000 nM.

In the case of `COC(=O)C1=C(CN2CC[C@]3(F)C(=O)N(CC(C)(C)C(=O)O)C[C@H]23)NC(c2nccs2)=N[C@H]1c1ccc(F)c(F)c1Cl` (single isomer, unassigned) [Compound 209A, 3-((cis)-1-((6-(2-chloro-3,4-difluorophenyl)-5-(methoxycarbonyl)-2-(thiazol-2-yl)-3,6-dihydropyrimidin-4-yl)methyl)-3a-fluoro-4-oxohexahydropyrrolo[3,4-b]pyrrol-5(1H)-yl)-2,2-dimethylpropanoic acid], the EC50 with HBV (setting [2]) was 19.1 nM. Also, in data set [1], the 50% cytotoxic concentration (CC50) at 6 days was determined as 23300 nM.

For the compound `CCOC(=O)C1=C(CN2CC[C@]3(F)C(=O)N(CCC(C)(C)C(=O)O)C[C@H]23)NC(c2nccs2)=N[C@H]1c1cccc(F)c1C` (single isomer, unassigned) [Compound 210B], in the data set with HBV (setting [2]), the EC50 stood at 97.7 nM. The compound further showed a CC50 at 6 days in data set [1] of 48700 nM.

`CCOC(=O)C1=C(CN2CC(F)(F)C3C(=O)N(CC(C)(C)C(=O)O)C[C@@H]32)NC(c2nccs2)=N[C@@H]1c1ccc(Cl)c(F)c1` (single isomer, unassigned) [Compound 211, 3-((cis)-1-((6-(4-chloro-3-fluorophenyl)-5-(ethoxycarbonyl)-2-(thiazol-2-yl)-3,6-dihydropyrimidin-4-yl)methyl)-3,3-difluoro-4-oxohexahydropyrrolo[3,4-b]pyrrol-5(1H)-yl)-2,2-dimethylpropanoic acid]: the EC50 with HBV (setting [2]) came out at 36 nM. In addition, the CC50 at 6 days in data set [1] was more than 50000 nM.

With `CCOC(=O)C1=C(CN2CCC3(F)C(=O)N(CC(C)(C)C(=O)O)CC23)NC(c2nccs2)=N[C@H]1c1cccc(F)c1C` (stereo in doubt) [Compound 3, 3-((cis)-1-(((S)-5-(ethoxycarbonyl)-6-(3-fluoro-2-methylphenyl)-2-(thiazol-2-yl)-3,6-dihydropyrimidin-4-yl)methyl)-3a-fluoro-4-oxohexahydropyrrolo[3,4-b]pyrrol-5(1H)-yl)-2,2-dimethylpropanoic acid], the EC50 in the data set on HBV (setting [2]) is 20.2 nM. The CC50 at 6 days in data set [1] is 63100 nM.

As to `CCOC(=O)C1=C(CN2CC(F)(F)C3C2CCN3CC(=O)O)NC(c2nccs2)=N[C@H]1c1cccc(F)c1C` (stereo in doubt) [Compound 6, 2-((cis)-4-(((S)-5-(ethoxycarbonyl)-6-(3-fluoro-2-methylphenyl)-2-(thiazol-2-yl)-3,6-dihydropyrimidin-4-yl)methyl)-6,6-difluorohexahydropyrrolo-[3,2-b]pyrrol-1(2H)-yl)acetic acid], the EC50 with HBV (setting [2]) was found to be 10.4 nM. It took 37200 nM to reach half-maximal cytotoxicity in data set [1] (CC50 at 6 days).

As to `CCOC(=O)C1=C(CN2CC(F)(F)C3CN(C(=O)C(C)(C)C(=O)O)CC32)NC(c2nccs2)=N[C@H]1c1cccc(F)c1C` (stereo in doubt) [Compound 9, (cis)-3-(1-(((S)-5-(Ethoxycarbonyl)-6-(3-fluoro-2-methylphenyl)-2-(thiazol-2-yl)-3,6-dihydropyrimidin-4-yl)methyl)-3,3-difluorohexahydropyrrolo[3,4-b]pyrrol-5(1H)-yl)-2,2-dimethyl-3-oxopropanoic acid], the EC50 in the data set with HBV (setting [2]) worked out at 41.7 nM. The same compound registered a CC50 at 6 days in data set [1] of 76300 nM.

As to `CCOC(=O)C1=C(CN2CC(F)(F)C3CN(CC(C)(C)C(=O)O)CC32)NC(c2nccs2)=N[C@H]1c1cccc(F)c1C` (stereo in doubt) [Compound 12, (cis)-3-(1-(((S)-5-(ethoxycarbonyl)-6-(3-fluoro-2-methylphenyl)-2-(thiazol-2-yl)-3,6-dihydropyrimidin-4-yl)methyl)-3,3-difluorohexahydropyrrolo[3,4-b]pyrrol-5(1H)-yl)-2,2-dimethylpropanoic acid], the EC50 with HBV (setting [2]) was 32.4 nM. This compound also yielded a CC50 at 6 days in data set [1] of 56700 nM.

Regarding `CCOC(=O)C1=C(CN2CC(F)(F)C3CN(C(C)C(=O)O)CC32)NC(c2nccs2)=N[C@H]1c1cccc(F)c1C` (stereo in doubt) [Compound 14, 2-((cis)-1-(((S)-5-(Ethoxycarbonyl)-6-(3-fluoro-2-methylphenyl)-2-(thiazol-2-yl)-3,6-dihydropyrimidin-4-yl)methyl)-3,3-difluorohexahydropyrrolo[3,4-b]pyrrol-5(1H)-yl)propanoic acid], in the data set with HBV (setting [2]), the EC50 turned out to be 137 nM. In data set [1], this compound displayed a CC50 at 6 days of more than 100000 nM.

Regarding `CCOC(=O)C1=C(CN2CC(F)(F)C3CN(CC(C)C(=O)O)CC32)NC(c2nccs2)=N[C@H]1c1cccc(F)c1C` (stereo in doubt) [Compound 15, 3-((cis)-1-(((S)-5-(ethoxycarbonyl)-6-(3-fluoro-2-methylphenyl)-2-(thiazol-2-yl)-3,6-dihydropyrimidin-4-yl)methyl)-3,3-difluorohexahydropyrrolo[3,4-b]pyrrol-5(1H)-yl)-2-methylpropanoic acid], the EC50 with HBV (setting [2]) was determined as 60.3 nM. In data set [1], this compound came in with a CC50 at 6 days of more than 100000 nM.

Compound `CCOC(=O)C1=C(CN2CC(F)(F)[C@@H]3[C@H]2CN(C(=O)C(F)(F)F)N3CCC(C)(C)C(=O)O)NC(c2nccs2)=N[C@H]1c1cccc(F)c1C` (stereo in doubt) [Compound 71, 4-((cis)-4-(((S)-5-(ethoxycarbonyl)-6-(3-fluoro-2-methylphenyl)-2-(thiazol-2-yl)-3,6-dihydropyrimidin-4-yl)methyl)-6,6-difluoro-2-(2,2,2-trifluoroacetyl)hexahydropyrrolo[3,2-c]pyrazol-1(2H)-yl)-2,2-dimethylbutanoic acid] had an EC50 with HBV of 29 nM. This compound also gave a CC50 at 6 days in data set [1] of 20900 nM.

For the compound `CCOC(=O)C1=C(CN2CC(F)(F)C3C2CCN3CC(C)(C)C(=O)O)NC(c2nccs2)=N[C@H]1c1cccc(F)c1C` (stereo partly drawn) [Compound 1, 3-(4-(((S)-5-(ethoxycarbonyl)-6-(3-fluoro-2-methylphenyl)-2-(thiazol-2-yl)-3,6-dihydropyrimidin-4-yl)methyl)-6,6-difluorohexahydropyrrolo[3,2-b]pyrrol-1(2H)-yl)-2,2-dimethylpropanoic acid], in the data set with HBV (setting [2]), the EC50 amounted to 10.6 nM. In data set [1], this compound displayed a CC50 at 6 days of 24800 nM.

Consider `CCOC(=O)C1=C(CN2CC(F)(F)C3CC(C(=O)O)CC32)NC(c2nccs2)=N[C@H]1c1cccc(F)c1C` (stereo partly drawn) [Compound 2, (cis)-1-(((S)-5-(ethoxycarbonyl)-6-(3-fluoro-2-methylphenyl)-2-(thiazol-2-yl)-3,6-dihydropyrimidin-4-yl)methyl)-3,3-difluorooctahydrocyclo-penta[b]pyrrole-5-carboxylic acid], for which the EC50 in the data set on HBV (setting [2]) worked out at 4.1 nM. The compound also yielded a CC50 at 6 days in data set [1] of 26700 nM.

For the compound `CCOC(=O)C1=C(CN2CCC3C(=O)N(CC(C)(C)C(=O)O)C(=O)C32)NC(c2nccs2)=N[C@H]1c1cccc(F)c1C` (stereo partly drawn) [Compound 4], in the data set with HBV (setting [2]), the EC50 came out at 56.4 nM. In data set [1], the midpoint of cytotoxicity, the CC50 at 6 days, lay at 47800 nM.

As to `CCOC(=O)C1=C(CN2CC(F)(F)C3C(=O)N(CC(C)(C)C(=O)O)CC32)NC(c2nccs2)=N[C@H]1c1cccc(F)c1C` (stereo partly drawn) [Compound 5], the half-maximal effective concentration (EC50) with HBV (setting [2]) worked out at 22.7 nM. Besides, in data set [1], the CC50 at 6 days stood at 90100 nM.

In the case of `CCOC(=O)C1=C(CN2CC(F)C3C2CCN3CC(C)(C)C(=O)O)NC(c2nccs2)=N[C@H]1c1cccc(F)c1C` (stereo partly drawn) [Compound 11, 3-(4-(((S)-5-(ethoxycarbonyl)-6-(3-fluoro-2-methylphenyl)-2-(thiazol-2-yl)-3,6-dihydropyrimidin-4-yl)methyl)-6-fluorohexahydropyrrolo[3,2-b]pyrrol-1(2H)-yl)-2,2-dimethylpropanoic acid], the EC50 in the data set on HBV (setting [2]) was found to be 70.3 nM. The compound further registered a CC50 at 6 days in data set [1] of 37300 nM.

In the case of `CCOC(=O)C1=C(CN2CC(F)(F)C3CN(CC(C)(C)C(=O)O)C(=O)C32)NC(c2nccs2)=N[C@H]1c1cccc(F)c1C` (stereo partly drawn) [Compound 13], the EC50 in the data set with HBV (setting [2]) worked out at 8.4 nM. The same compound registered a half-maximal cytotoxic concentration (CC50) at 6 days in data set [1] of 50000 nM.

Take `CCOC(=O)C1=C(CN2CC(F)(F)C3CN(CC4(C(=O)O)CC4)CC32)NC(c2nccs2)=N[C@H]1c1cccc(F)c1C` (stereo partly drawn) [Compound 16]: the EC50 in the data set with HBV (setting [2]) was 112 nM. In data set [1], this compound returned a CC50 at 6 days of 37200 nM.

For the compound `CCOC(=O)C1=C(CN2CCC3C(=O)N(CC(C)(C)C(=O)O)CC32)NC(c2nccs2)=N[C@H]1c1cccc(F)c1C` (stereo partly drawn) [Compound 25], in the data set on HBV (setting [2]), the EC50 was 95.2 nM. In data set [1], the half-maximal cytotoxic concentration (CC50) at 6 days was 95500 nM.

As for `CCOC(=O)C1=C(CN2CC(F)(F)C3C2CCN3NCC(C)(C)C(=O)O)NC(c2nccs2)=N[C@H]1c1cccc(F)c1C` (stereo partly drawn) [Compound 27], the EC50 with HBV (setting [2]) amounted to 42 nM. In data set [1], this compound yielded a CC50 at 6 days of 13900 nM.
